Twelve molecules from ChEMBL document CHEMBL4808235, “Identification of 6-hydroxy-5-phenyl sulfonylpyrimidin-4(1H)-one APJ receptor agonists” (Bioorg Med Chem Lett, 2021) can be followed below.

A short description of data set [1]: Permeability of the compound at pH 7.4 by PAMPA. As to conditions: read-out: permeability. The class given is ADME. On the technique in general: In PAMPA a lipid-coated filter parts donor from acceptor wells.
Data set [2] can be described thus: Metabolic stability in rat liver microsomes assessed as parent compound remaining incubated for 10 mins in presence of NADPH. As to conditions: read-out: Stabilty. The class given is ADME, Microsome. In general terms: Microsomes from liver hold many membrane-bound enzymes, among them those of drug oxidation.
In data set [3] the target is T1, Apelin receptor (Mus musculus, UniProt Q9WV08).
T1 sequence (Q9WV08 whole entry): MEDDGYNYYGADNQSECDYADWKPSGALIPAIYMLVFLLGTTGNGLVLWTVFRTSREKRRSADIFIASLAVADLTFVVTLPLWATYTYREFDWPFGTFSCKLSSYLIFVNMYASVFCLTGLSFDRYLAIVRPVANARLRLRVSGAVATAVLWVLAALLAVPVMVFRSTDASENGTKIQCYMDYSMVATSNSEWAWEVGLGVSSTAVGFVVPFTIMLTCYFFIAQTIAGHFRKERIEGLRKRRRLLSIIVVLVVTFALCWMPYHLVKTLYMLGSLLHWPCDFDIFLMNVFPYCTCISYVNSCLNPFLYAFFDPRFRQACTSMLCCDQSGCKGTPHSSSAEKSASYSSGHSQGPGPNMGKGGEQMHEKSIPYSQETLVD
Briefly: Agonist activity at mouse APJ receptor assessed as effect on cAMP accumulation by cAMP-Glo assay. On the technique in general: cAMP levels reflect the balance of adenylyl cyclase and phosphodiesterase activity.

A short description of data set [4]: Metabolic stability in mouse liver microsomes assessed as parent compound remaining incubated for 10 mins in presence of NADPH. The class given is ADME, Microsome. As to conditions: read-out: Stabilty.
For data set [5], the target named is T2, Apelin receptor (Homo sapiens, UniProt P35414).
T2 sequence (P35414 whole entry): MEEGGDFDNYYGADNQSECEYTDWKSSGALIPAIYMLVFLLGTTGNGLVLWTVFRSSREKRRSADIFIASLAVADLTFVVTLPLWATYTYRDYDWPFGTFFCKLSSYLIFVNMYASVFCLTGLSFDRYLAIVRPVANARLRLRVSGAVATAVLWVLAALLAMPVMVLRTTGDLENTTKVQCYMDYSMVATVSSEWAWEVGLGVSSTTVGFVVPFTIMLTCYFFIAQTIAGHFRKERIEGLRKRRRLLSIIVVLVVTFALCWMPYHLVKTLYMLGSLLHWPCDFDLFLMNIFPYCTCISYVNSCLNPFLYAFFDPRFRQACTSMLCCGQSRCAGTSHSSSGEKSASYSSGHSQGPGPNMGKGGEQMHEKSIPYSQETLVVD
Briefly: Agonist activity at human APJ receptor assessed as effect on cAMP accumulation by cAMP-Glo assay. The class given is functional.

Data set [6] can be described thus: Metabolic stability in human liver microsomes assessed as parent compound remaining incubated for 10 mins in presence of NADPH. The class given is ADME, Microsome. Particulars: read-out: Stabilty.
Data set [7] can be described thus: Permeability of the compound at pH 5.5 by PAMPA. Particulars: read-out: permeability. The class given is ADME.
Data set [8] has as its target T3, Apelin receptor (Rattus norvegicus, UniProt Q9JHG3).
T3 sequence (Q9JHG3 whole entry): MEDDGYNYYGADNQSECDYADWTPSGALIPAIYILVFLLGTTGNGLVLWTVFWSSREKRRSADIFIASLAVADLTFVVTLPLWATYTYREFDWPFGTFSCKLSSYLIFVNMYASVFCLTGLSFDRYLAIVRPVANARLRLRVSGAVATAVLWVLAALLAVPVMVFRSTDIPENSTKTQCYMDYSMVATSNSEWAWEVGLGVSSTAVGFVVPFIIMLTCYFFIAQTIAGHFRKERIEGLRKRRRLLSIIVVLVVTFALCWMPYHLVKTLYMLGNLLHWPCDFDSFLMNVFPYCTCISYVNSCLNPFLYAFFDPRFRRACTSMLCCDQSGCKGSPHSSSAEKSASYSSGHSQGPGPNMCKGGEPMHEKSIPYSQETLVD
Briefly: Agonist activity at rat APJ receptor assessed as effect on cAMP accumulation by cAMP-Glo assay. The class given is functional.

Broadly, the pEC50 is the EC50 on a negative log10 scale, so that one unit is a factor of ten.

pEC50: −log10 of the molar value.

Take `CCCCc1nc(=O)c(S(=O)(=O)c2ccc(-n3ccccc3=O)cc2)c(O)n1-c1c(OC)cccc1OC`: the Papp worked out at 0.1 ×10⁻⁶ cm/s in data set [1] and 1.2 ×10⁻⁶ cm/s in data set [7]. Besides, the remaining at 10 min in data set [2] worked out at 83%; in data set [4], 63%; in data set [6], 87%. Moreover, the values for the pEC50 on Apelin receptor [3] and at Apelin receptor [5] were 10.52 and 10.70, respectively.
`COc1cccc(OC)c1-n1c(COC(C)C)nc(=O)c(S(=O)(=O)c2ccc(-c3ccc(F)nc3)cc2)c1O`: the pEC50 on Apelin receptor [8] was 10.70; at Apelin receptor [3] it was 10.52; at Apelin receptor [5] it was 11.00. For the same molecule, the Papp in data set [1] came out at 0.4 ×10⁻⁶ cm/s; in data set [7], 7.5 ×10⁻⁶ cm/s. Further, the remaining at 10 min in data set [2] was determined as 30%; in data set [4], 90%; in data set [6] it was 84%.
`CCCCc1[nH]c(=O)c(S(=O)(=O)c2ccc(-c3ccc(F)cc3)cc2)c(O)c1-c1c(OC)cccc1OC`: the negative logarithm of the EC50 (pEC50) on Apelin receptor [8] is 7.14; at Apelin receptor [3], 7.47; at Apelin receptor [5], 7.77.
Take `CCCCc1[nH]c(=O)c(S(=O)(=O)c2ccc(-c3ccc(F)nc3)cc2)c(O)c1-c1c(OC)cccc1OC`: the values for the pEC50 on Apelin receptor [8], on Apelin receptor [3] and on Apelin receptor [5] were 7.92, 8.30 and 9.15, respectively.
As for `CCCCc1nc(=O)c(S(=O)(=O)c2ccc(-c3ccc(F)cc3)cc2)c(O)n1-c1c(OC)cccc1OC`, the results for the pEC50 on Apelin receptor [8], at Apelin receptor [3] and on Apelin receptor [5] were 10.70, 10.00 and 10.10, respectively. For the same molecule, the Papp in data set [1] came to 13.2 ×10⁻⁶ cm/s; in data set [7], 41.8 ×10⁻⁶ cm/s. For the same molecule, the remaining at 10 min was found to be 5% in data set [2], 47% in data set [4] and 100% in data set [6].
`COc1cccc(OC)c1-n1c(CCC(C)C)nc(=O)c(S(=O)(=O)c2ccc(-c3ccc(F)nc3)cc2)c1O`: the pEC50 on Apelin receptor [8] is 10.52. Also, the Papp amounted to 3.5 ×10⁻⁶ cm/s in data set [1] and 24.6 ×10⁻⁶ cm/s in data set [7]. Moreover, the remaining at 10 min in data set [2] was found to be 1%; in data set [4], 31%; in data set [6], 89%.
On to `CCCCc1[nH]c(=O)c(S(=O)(=O)c2ccc(-n3cc(Cl)ccc3=O)cc2)c(O)c1-c1c(OC)cccc1OC`, for which the negative-log EC50 (pEC50) on Apelin receptor [8] is 9.70; at Apelin receptor [3] it was 10.00; on Apelin receptor [5], 10.52. Besides, the Papp was determined as 2.2 ×10⁻⁶ cm/s in data set [1] and 28.5 ×10⁻⁶ cm/s in data set [7]. Moreover, the remaining at 10 min came to 72% in data set [2], 64% in data set [4] and 97% in data set [6].
With `CCCCc1[nH]c(=O)c(S(=O)(=O)c2ccc(-c3cccnc3OC)cc2)c(O)c1-c1c(OC)cccc1OC`, the pEC50 was 9.15 on Apelin receptor [8], 9.70 at Apelin receptor [3] and 10.52 on Apelin receptor [5]. In addition, the remaining at 10 min in data set [4] was found to be 24%; in data set [6], 72%.
In the case of `CCCCc1nc(=O)c(S(=O)(=O)c2ccc(-c3cccnc3OC)cc2)c(O)n1-c1c(OC)cccc1OC`, the pEC50 is 10.70 on Apelin receptor [8], 10.52 on Apelin receptor [3] and 11.00 on Apelin receptor [5]. Further, the remaining at 10 min in data set [2] turned out to be 27%; in data set [4], 98%; in data set [6] it was 97%. Moreover, the Papp in data set [7] worked out at 45.6 ×10⁻⁶ cm/s.
For `COc1cccc(OC)c1-n1c(C2CCCC2)nc(=O)c(S(=O)(=O)c2ccc(C3CC3)cc2)c1O`, the results for the pEC50 on Apelin receptor [8], at Apelin receptor [3] and on Apelin receptor [5] were 8.82, 9.40 and 9.52, respectively.
Consider `CCCCc1nc(=O)c(S(=O)(=O)c2ccc(-n3cc(Cl)ccc3=O)cc2)c(O)n1-c1c(OC)cccc1OC`, for which the pEC50 at Apelin receptor [8] was 11.00; on Apelin receptor [3], 10.70; at Apelin receptor [5] it was 10.30. Besides, the remaining at 10 min worked out at 74% in data set [2], 100% in data set [4] and 94% in data set [6]. Further, the Papp in data set [7] stood at 8.3 ×10⁻⁶ cm/s.
With `COc1cccc(OC)c1-n1c(-c2cncc(C)c2)nc(=O)c(S(=O)(=O)c2ccc(C3CC3)cc2)c1O`, the pEC50 on Apelin receptor [8] was 8.00; at Apelin receptor [3], 8.30; at Apelin receptor [5] it was 8.30.
